Assay results published in patent US4259328A, “Morpholino pyridazinylhydrazones” (Richter Gedeon Vegyeszeti Gyar Rt, priority 1977, dated 1981).
Where two headings read alike, the source gives them in different places.

Experiments:
tyrosine-hydroxylase = molecular target: T1, tyrosine-hydroxylase (Rattus norvegicus, UniProt P04177); assay: In vitro tyrosine-hydroxylase inhibiting activity (TH) on rat adrenal homogenate; assay type: biochemical; details: read-out: Enzyme inhibiting activity, TH; for inhibition at 100 µM: 10^-4 mole/liter; for inhibition at 10 µM: 10^-5 mole/liter
T1 construct: on rat adrenal homogenate; from tissue; host or cells: rat adrenal homogenate
T1 sequence (P04177 whole entry): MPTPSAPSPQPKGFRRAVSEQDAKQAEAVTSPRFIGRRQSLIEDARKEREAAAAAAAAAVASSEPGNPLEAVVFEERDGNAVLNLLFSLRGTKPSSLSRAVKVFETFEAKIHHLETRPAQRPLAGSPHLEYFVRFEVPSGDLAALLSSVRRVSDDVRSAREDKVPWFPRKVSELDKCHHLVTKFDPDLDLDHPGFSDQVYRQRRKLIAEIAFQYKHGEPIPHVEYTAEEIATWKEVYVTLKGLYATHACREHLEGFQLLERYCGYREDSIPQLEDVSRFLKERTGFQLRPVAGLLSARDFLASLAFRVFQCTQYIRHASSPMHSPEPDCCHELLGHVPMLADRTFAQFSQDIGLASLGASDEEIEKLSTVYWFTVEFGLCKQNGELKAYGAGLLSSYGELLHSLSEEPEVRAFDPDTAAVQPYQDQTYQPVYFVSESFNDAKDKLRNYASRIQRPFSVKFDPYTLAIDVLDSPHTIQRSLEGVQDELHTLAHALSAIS
Experimental: In vitro tyrosine-hydroxylase inhibiting activity (TH inhibiting activity) of the new compounds according to the invention was tested by the method of Nagatsu [Anal. Biochem., 9, 122 (1964)] on rat adrenal homogenate. Radioactive tyrosine was purified by the method elaborated by Ikeda [J. Biol. Chem., 241, 4452 (1966)]. TH activity of the rat adrenal homogenate amounted to […] nmoles/mg protein/60 min.
(§1) Inhibiting effect of several compounds encompassed by the formula I in comparison with some known compounds is listed in the following Table I.

dopamine-β-hydroxylase = molecular target: T2, dopamine-β-hydroxylase (Bos taurus, UniProt P15101); assay: Dopamine-β-hydroxylase inhibiting activity (DBH) on bovine adrenal (gland) preparations; assay type: biochemical; details: read-out: Enzyme inhibiting activity, DBH; for inhibition at 100 µM: 10^-4 mole/liter; for inhibition at 10 µM: 10^-5 mole/liter
T2 construct: from tissue; host or cells: bovine adrenal (gland) preparations
T2 sequence (P15101 1-610): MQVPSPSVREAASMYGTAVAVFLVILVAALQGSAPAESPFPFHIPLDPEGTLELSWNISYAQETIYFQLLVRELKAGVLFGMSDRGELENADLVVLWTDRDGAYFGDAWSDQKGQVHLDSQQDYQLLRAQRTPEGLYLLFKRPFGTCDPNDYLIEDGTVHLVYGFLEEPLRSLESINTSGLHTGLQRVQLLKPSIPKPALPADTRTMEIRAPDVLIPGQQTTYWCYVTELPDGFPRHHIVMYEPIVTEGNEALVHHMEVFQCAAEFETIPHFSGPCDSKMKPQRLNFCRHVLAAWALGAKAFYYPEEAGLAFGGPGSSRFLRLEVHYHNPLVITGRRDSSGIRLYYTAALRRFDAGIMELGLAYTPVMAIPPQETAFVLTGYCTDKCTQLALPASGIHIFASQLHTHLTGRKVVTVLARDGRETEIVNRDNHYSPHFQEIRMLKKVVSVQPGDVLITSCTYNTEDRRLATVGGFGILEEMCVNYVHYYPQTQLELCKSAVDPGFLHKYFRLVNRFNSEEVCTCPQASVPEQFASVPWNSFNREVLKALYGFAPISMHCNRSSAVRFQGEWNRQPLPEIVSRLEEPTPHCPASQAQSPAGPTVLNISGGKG
Experimental: Dopamine-β-hydroxylase inhibiting activity (DBH inhibiting activity) of the compounds according to the invention was tested on bovine adrenal (gland) preparations by a modified version of Nagatsu's method [B.B. Acta, 139 319 (1967)].
as §1

[1] = system: spontaneous hypertensive rats (Wistar-Okamoto rats); assay: Blood pressure lowering activity, systolic blood pressure of waking spontaneous hypertensive rats, oral; assay type: in vivo, rat; details: for change in vivo at 2.5 mg/kg / change in vivo at 50 mg/kg / change in vivo at 20 mg/kg: Rattus norvegicus, oral, read-out: Reduction in blood pressure; for significant blood pressure lowering activity: ≥-15%
Experimental: Blood pressure lowering activity of the new compounds according to the invention was tested on spontaneous hypertensive rats (Wistar-Okamoto rats) following the method described in Arzn. Forsch., 6, 222 (1956). Systolic blood pressure of waking animals was measured in arteria caudalis 4, 24, 48 and 72 hours after the oral administration of the test compounds.

[2] = Acute toxicity (LD50) on mice; details: mouse, in vivo, po

inhibition at 100 µM (dopamine-β-hydroxylase) | inhibition at 10 µM (dopamine-β-hydroxylase) | SMILES | significant blood pressure lowering activity [1] | LD50 [2] | further results
0% | 0% | CC(N)(Cc1ccc(O)cc1)C(=O)O (racemic) [D,L-α-methyl-4-hydroxy-phenyl-alanine, reference compound] | – | – | inhibition at 100 µM (tyrosine-hydroxylase): 100%; inhibition at 10 µM (tyrosine-hydroxylase): 60%
80% | 0% | CC12CCC(CC1=NNc1cccnn1)C2(C)C (centres unmarked) [Example 3, 1,7,7-Trimethy-2-bicyclo-[2,2,1]heptylidene-3-pyridazinylhydrazone] | – | – | inhibition at 100 µM (tyrosine-hydroxylase): 100%; inhibition at 10 µM (tyrosine-hydroxylase): 75%
– | – | c1cc(N2CCOCC2)nnc1NN=C1CCCCC1 [Example 10, Cyclohexylidene-3-morpholino-6-pyridazinylhydrazone] | ≥ -15% | < 200 mg/kg | change in vivo at 2.5 mg/kg ([1]; 4 hours): -41%; change in vivo at 2.5 mg/kg ([1]; 24 hours): -26%
84% | 10% | c1cnnc(NN=C2CCCCC2)c1 [Example 12, Cyclohexylidene-3-pyridazinylhydrazone] | – | – | inhibition at 100 µM (tyrosine-hydroxylase): 100%; inhibition at 10 µM (tyrosine-hydroxylase): 85%
90% | 10% | CC(=NNc1cccnn1)c1ccccc1 [Example 13, 1-Phenyl-1-ethylidene-3-pyridazinylhydrazone] | – | – | inhibition at 100 µM (tyrosine-hydroxylase): 95%; inhibition at 10 µM (tyrosine-hydroxylase): 40%
88% | 32% | CC1CCCCC1=NNc1ccc(Cl)nn1 (centres unmarked) [Example 15, 2-Methyl-1-cyclohexylidene-3-chloro-6-pyridazinylhydrazone] | – | – | inhibition at 100 µM (tyrosine-hydroxylase): 100%; inhibition at 10 µM (tyrosine-hydroxylase): 50%
88% | 32% | O=C(O)C1CCCCC1=NNc1ccc(Cl)nn1 (centres unmarked) [Example 18, 2-Carboxy-1-cyclohexylidene-3-chloro-6-pyridazinylhydrazone] | – | – | inhibition at 100 µM (tyrosine-hydroxylase): 100%; inhibition at 10 µM (tyrosine-hydroxylase): 50%
100% | 56% | CCOC(=O)CC(C)=NNc1cccnn1 [Example 22, 3-(Ethoxycarbonyl)-2-propylidene-(3-pyridazinyl)hydrazone] | – | – | inhibition at 100 µM (tyrosine-hydroxylase): 100%; inhibition at 10 µM (tyrosine-hydroxylase): 50%
100% | 50% | COC(=O)CC(C)=NNc1ccc(Cl)nn1 [Example 24, 3-(Methoxycarbonyl)-2-propylidene-3-chloro-6-pyridazinylhydrazone] | – | – | –
– | – | CCOC(=O)C(C)C(C)=NNc1ccc(Cl)nn1 (centres unmarked) [Example 25, 3-(Ethoxycarbonyl)-2-butylidene-3-chloro-6-pyridazinylhydrazone] | ≥ -15% | 200 mg/kg | change in vivo at 50 mg/kg ([1]; 4 hours): -33%; change in vivo at 50 mg/kg ([1]; 24 hours): -17%
– | – | CCOC(=O)CCCC(C)=NNc1ccc(Cl)nn1 [Example 26] | ≥ -15% | 200 mg/kg | change in vivo at 50 mg/kg ([1]; 4 hours): -38%; change in vivo at 50 mg/kg ([1]; 24 hours): -29%
– | – | CCOC(=O)CC(CC)=NNc1ccc(Cl)nn1 [Example 27, 1-(Ethoxycarbonyl)-2-butylidene-3-chloro-6-pyridazinylhydrazone] | ≥ -15% | – | –
100% | 40% | CCOC(=O)CC(=NNc1ccc(Cl)nn1)c1ccccc1 [Example 34, 1-(Ethoxycarbonyl)-2-phenyl-2-ethylidene-3-chloro-6-pyridazinylhydrazone] | – | – | –
100% | 41% | CCOC(=O)CC(=NNc1ccc(Cl)nn1)c1cccnc1 [Example 37, 1-(Ethoxycarbonyl)-2-(3-pyridyl)-2-ethylidene-3-chloro-6-pyridazinylhydrazone] | – | – | –
– | – | CC(CCC(=O)O)=NNc1ccc(Cl)nn1 [Example 38, 4-Carboxy-2-butylidene-3-chloro-6-pyridazinylhydrazone] | ≥ -15% | 200 mg/kg | change in vivo at 50 mg/kg ([1]; 4 hours): -34%; change in vivo at 50 mg/kg ([1]; 24 hours): -27%
– | – | CC(CCC(=O)OC(C)(C)C)=NNc1ccc(Cl)nn1 [Example 43, 4-(tert.-Butoxycarbonyl)-2-butylidene-3-chloro-6-pyridazinylhydrazone] | ≥ -15% | 200 mg/kg | change in vivo at 50 mg/kg ([1]; 4 hours): -32%; change in vivo at 50 mg/kg ([1]; 24 hours): -18%
– | – | CC(CCC(=O)O)=NNc1ccc(N2CCOCC2)nn1 [Example 48, 4-Carboxy-2-butylidene-3-morpholino-6-pyridazinylhydrazone] | ≥ -15% | 200 mg/kg | change in vivo at 2.5 mg/kg ([1]; 4 hours): -33%; change in vivo at 2.5 mg/kg ([1]; 24 hours): -8%
– | – | CC(CC(=O)OC(C)(C)C)=NNc1ccc(C)nn1 [Example 53, 3-(tert.-Butoxycarbonyl)-2-propylidene-(3-methyl-6-pyridazinyl) hydrazone] | ≥ -15% | 200 mg/kg | change in vivo at 50 mg/kg ([1]; 4 hours): -32%; change in vivo at 50 mg/kg ([1]; 24 hours): -27%
– | – | CC(CC(=O)OC(C)(C)C)=NNc1ccc(C(N)=O)nn1 [Example 56, 3-(tert.-Butoxycarbonyl)-2-propylidene-(3-carbamoyl-6-pyridazinyl) hydrazine] | ≥ -15% | > 200 mg/kg | change in vivo at 20 mg/kg ([1]; 4 hours): -20%; change in vivo at 20 mg/kg ([1]; 24 hours): 0%
– | – | CC(CCCC(=O)O)=NNc1ccc(N2CCOCC2)nn1 [Example 57, 5-Carboxy-2-pentylidene-3-morpholino-6-pyridazinylhydrazone] | ≥ -15% | 200 mg/kg | change in vivo at 2.5 mg/kg ([1]; 4 hours): -28%; change in vivo at 2.5 mg/kg ([1]; 24 hours): -16%

SMILES | inhibition at 100 µM (dopamine-β-hydroxylase) | inhibition at 10 µM (dopamine-β-hydroxylase) | significant blood pressure lowering activity [1] | LD50 [2] | further results
COC(=O)CCC(C)=NNc1ccc(Cl)nn1 [Example 23] | 70% | 50% | ≥ -15% | 200 mg/kg | change in vivo at 50 mg/kg ([1]; 4 hours): -21%; change in vivo at 50 mg/kg ([1]; 24 hours): -8%
CCOC(=O)CCCCC(C)=NNc1ccc(Cl)nn1 [Example 49, 6-(Ethoxycarbonyl)-2-hexylidene-3-chloro-6-pyridazinylhydrazone] | 66% | 50% | ≥ -15% | < 200 mg/kg | change in vivo at 20 mg/kg ([1]; 4 hours): -22%; change in vivo at 20 mg/kg ([1]; 24 hours): -13%
CC(CCCC(=O)O)=NNc1ccc(Cl)nn1 [Example 50, 5-Carboxy-2-pentylidene-3-chloro-6-pyridazinylhydrazone] | 73% | 0% | ≥ -15% | 200 mg/kg | change in vivo at 20 mg/kg ([1]; 4 hours): -28%; change in vivo at 20 mg/kg ([1]; 24 hours): -30%
CC(CCC(=O)O)=NNc1ccc(C)nn1 [Example 55, 4-Carboxy-2-butylidene-(3-methyl-6-pyridazinyl) hydrazone] | 50% | 0% | ≥ -15% | > 200 mg/kg | change in vivo at 20 mg/kg ([1]; 4 hours): -39%; change in vivo at 20 mg/kg ([1]; 24 hours): -14%
CCOC(=O)CCC(C)=NNc1ccc(Cl)nn1 [Example 62, 4-(Ethoxycarbonyl)-2-butylidene-(3-chloro-6-pyridazinl)hydrazone] | 60% | – | ≥ -15% | 200 mg/kg | change in vivo at 50 mg/kg ([1]; 4 hours): -29%; change in vivo at 50 mg/kg ([1]; 24 hours): -26%
CCOC(=O)CC=NNc1ccc(Cl)nn1 [Example 65, 2-(Ethoxycarbonyl)-1-ethylidene-(3-chloro-6-pyridazinyl)hydrazone] | 73% | 44% | ≥ -15% | > 200 mg/kg | change in vivo at 50 mg/kg ([1]; 4 hours): -18%; change in vivo at 50 mg/kg ([1]; 24 hours): -23%
CCCCc1ccc(C(=O)O)nc1 [Fusaric acid, reference compound] | 100% | 100% | – | – | inhibition at 100 µM (tyrosine-hydroxylase): 0%; inhibition at 10 µM (tyrosine-hydroxylase): 0%
